The source of these data is ChEMBL document CHEMBL5244217, “β-Carboline alkaloid monomers and dimers: Occurrence, structural diversity, and biological activities” (Eur J Med Chem, 2018).

pEC50, pIC50: −log10 of the molar value. Values after ≈ are worked out from the molar mass of the structure shown. Bounds are passed on as bounds.

The subject of one series is Micrococcus luteus. In words: Antibacterial activity against Sarcina lutea. The series is classed as functional.
Another series deals with MDA-MB-231. The experiment in a line: Cytotoxicity against human MDA-MB-231 cells. The format is functional, cell-based.
Another series relates to KB. The experiment in a line: Cytotoxicity against human KB cells. The series is classed as functional. To be noted: read-out: ED50 (the source's name).
For series [1], the system named is Human immunodeficiency virus 1. The experiment in a line: Antiviral activity against HIV1. The format is functional, organism-based.
In series [2] the test system is Staphylococcus aureus. In words: Antimicrobial activity against Staphylococcus aureus. The format is functional.
A further series concerns Cryptococcus neoformans. The experiment in a line: Antimicrobial activity against Cryptococcus neoformans. The format is functional.
Another series concerns Candida albicans. In words: Antimicrobial activity against Candida albicans. The format is functional.
The target of a further series is Alpha-glucosidase (Saccharomyces cerevisiae S288c, UniProt P53341+P38158+P07265). The experiment in a line: Inhibition of Saccharomyces cerevisiae alpha-glucosidase activity using pNPG as substrate. The format is protein assay.
The test system of series [3] is Trypanosoma brucei brucei. In words: Antitrypanosomal activity against Trypanosoma brucei brucei. The format is functional, organism-based.
The test system of series [4] is Plasmodium falciparum. In words: Antimalarial activity against Plasmodium falciparum. The series is classed as functional, organism-based.
For series [5], the system named is Human immunodeficiency virus 1. The experiment in a line: Antiviral activity against HIV1 IIIB infected in human C8166 cells assessed as reduction in virus-induced cytopathic effect measured after 3 days by Syncytia assays. The series is classed as functional, organism-based. The conditions noted are these: Human immunodeficiency virus 1, IIIB, C8166, 72 h. (Damage to the host cells serves as the signal in cytopathic effect assays.)

Series [6] is described as follows: Selectivity index, ratio of IC50 for cytotoxicity against rat L6 cells to IC50 for Antimalarial activity against Plasmodium falciparum K1 strain. To be noted: read-out: Selectivity Index. The series is classed as toxicity, cell-based.
Series [7] has as its system Plasmodium falciparum. In words: Antimalarial activity against Plasmodium falciparum K1 strain. The format is functional, organism-based.
In a further series the test system is HL-60. In words: Cytotoxicity against human HL-60 cells. The format is functional, cell-based.
Series [8] relates to Mycolicibacterium fortuitum. In words: Antibacterial activity against Mycobacterium fortuitum ATCC 6841. The format is functional.
Series [9] concerns Staphylococcus aureus. In words: Antibacterial activity against Staphylococcus aureus XU212. The format is functional.
The test system of series [10] is Mycolicibacterium smegmatis. In words: Antibacterial activity against Mycobacterium smegmatis ATCC 14468. The format is functional.
In series [11] the test system is Mycolicibacterium smegmatis. The experiment in a line: Antibacterial activity against Mycolicibacterium smegmatis MC2 2700. The format is functional.
Series [12] relates to Staphylococcus aureus. In words: Antibacterial activity against Staphylococcus aureus EMRSA-15. The series is classed as functional.
In another series the test system is Mycolicibacterium phlei. In words: Antibacterial activity against Mycolicibacterium phlei ATCC 11758. The series is classed as functional.
Series [13] has as its system Staphylococcus aureus. In words: Antibacterial activity against Staphylococcus aureus 1199B. The series is classed as functional.
In a further series the test system is dengue virus type 2. In words: Antiviral activity against DENV-2 strain New Guinea C infected in Vero cells assessed as reduction in virus yield measured after 48 hrs. The series is classed as functional, organism-based.
The next series deals with Bacillus subtilis. The experiment in a line: Antibacterial activity against Bacillus subtilis. The series is classed as functional.
Another series has as its system Corynebacterium xerosis. In words: Antibacterial activity against Corynebacterium xerosis. The format is functional.

`Oc1ccc2[nH]c3c(C4=C[C@@]5(O)CC/C=C\CCCCN6CC[C@@H]4[C@]4(C[C@@H]7/C=C\CCCCN7[C@H]45)C6)nccc3c2c1` [MANZAMINE Y] showed an MIC against Micrococcus luteus of 0.25 µg/mL (≈ 0.443 µM).

As for `CC(C)CC(N)c1nccc2c1[nH]c1cc(Br)ccc12` (centres undefined) [EUDISTALBIN A], the pIC50 in the series with MDA-MB-231 was 5.68. In the series with KB, the EC50 was less than 3.2 µg/mL.

The compound `O[C@]12C=C(c3nccc4c3[nH]c3ccccc34)[C@@H]3CCN(CCCC/C=C\CC1)C[C@@]31C[C@@H]3/C=C\CCCCN3[C@H]12` [MANZAMINE A] gave a negative-log IC50 (pIC50) in [1] of 5.38.

On to `CSc1c(C2=C(c3c[nH]c4ccc(O)cc34)C(=O)N3c4ccc(O)cc4C4C=C(C(=O)O)N=C2C43)n(C)c[n+]1C` (centres undefined), for which the minimum inhibitory concentration (MIC) with Staphylococcus aureus [2], with Cryptococcus neoformans and against Candida albicans was 8 µg/mL in each case.

At Alpha-glucosidase, `O=C(CO)CCC(=O)c1nc(C(=O)O)cc2c1[nH]c1ccccc12` came in with a 50% inhibitory concentration (IC50) of 63.3 µg/mL (≈ 194 µM).

On to `Oc1ccc2[nH]c3c(C4=C[C@@]5(O)CC/C=C\CCCCN6CC[C@@H]4[C@@]4(C6)C[C@@]67CCC(CCCN6[C@H]45)O7)nccc3c2c1`, for which the pIC50 in series [1] was 5.64.

Consider `O[C@]12C=C(C3c4[nH]c5ccccc5c4CCN3CCc3nccc4c3[nH]c3ccccc34)[C@@H]3CCN(CCCC/C=C\CC1)C[C@@]31C[C@@H]3/C=C\CCCCN3[C@H]12` (some centres undefined), for which the results for the IC50 (in series [3]; in the series on Plasmodium falciparum [4]) were 0.27 µg/mL (≈ 0.361 µM) and 0.58 µg/mL (≈ 0.776 µM), respectively.

As to `NC(=O)c1cc2c([nH]c3ccccc32)c(-c2ccc(CO)o2)n1`, in series [5], the pEC50 was 6.42.

In the case of `C[n+]1ccc2c(c1)[nH]c1ccc(Cl)cc12` [NOSTOCARBOLINE], the selectivity ratio in series [6] stood at 2500. Besides, in the series with Plasmodium falciparum [7], the pIC50 was 7.74.

On to `COc1ccc2c3c([nH]c2c1)[C@]12CC(C)(C)[C@@]4(C(=O)N1CC3)c1[nH]c3cc(OC)ccc3c1CCN24`, for which, in the series with HL-60, the pIC50 was 5.24.

For `O=C(O)c1cc2c([nH]c3ccccc32)c(-c2ccc(CO)o2)n1` [FLAZINE], the pIC50 in [5] is 5.63.

As to `N=C(N)NCCC[C@H]1NCCc2c1[nH]c1cc(Br)ccc21`, the MIC in series [8] was 16 µg/mL (≈ 45.7 µM); against Staphylococcus aureus [9], 8 µg/mL (≈ 22.8 µM); in series [10] it was 16 µg/mL (≈ 45.7 µM); in series [11] it was 2 µg/mL (≈ 5.71 µM); in the series with Staphylococcus aureus [12], 64 µg/mL (≈ 183 µM); against Mycolicibacterium phlei, 8 µg/mL (≈ 22.8 µM). Inhibition of growth against Staphylococcus aureus [13] (MIC) required 16 µg/mL (≈ 45.7 µM).

The compound `Oc1cccc2c1[nH]c1c(C3=C[C@@]4(O)CC/C=C\CCCCN5CC[C@@H]3[C@]3(C[C@@H]6/C=C\CCCCN6[C@H]34)C5)nccc12` gave an MIC in the series on Micrococcus luteus of 0.91 µg/mL (≈ 1.61 µM).

For `CSc1c(C2=C(c3c[nH]c4ccc(O)cc34)C(=O)N3c4ccc(O)cc4C4C=CN=C2C43)n(C)c[n+]1C` (centres undefined), the MIC against Staphylococcus aureus [2], against Cryptococcus neoformans and with Candida albicans was 4 µg/mL throughout.

On to `COc1ccc2c3ccnc(C)c3n(C)c2c1`, for which the pEC50 in the series on dengue virus type 2 is 5.49.

Consider `Oc1cccc2c3c([nH]c12)C(C1=C[C@@]2(O)CC/C=C\CCCCN4CC[C@@H]1[C@]1(C[C@@H]5/C=C\CCCCN5[C@H]12)C4)=NCC3`, for which the MIC in the series with Micrococcus luteus stood at 4 µg/mL (≈ 7.06 µM).

Take `O=c1ccc2nccc3c4ccccc4n1c23` [CANTHIN-6-ONE]: the MIC was 16 µg/mL (≈ 72.7 µM) in series [8]; 8 µg/mL (≈ 36.3 µM) in the series on Staphylococcus aureus [9]; 8 µg/mL (≈ 36.3 µM) in series [10]; 8 µg/mL (≈ 36.3 µM) in [11]; 32 µg/mL (≈ 145 µM) with Staphylococcus aureus [12]; 8 µg/mL (≈ 36.3 µM) in the series on Mycolicibacterium phlei. For the same compound, it took 8 µg/mL (≈ 36.3 µM) to inhibit growth against Staphylococcus aureus [13] (MIC).

As for `O[C@H]1[C@H]2[C@@H]3c4[nH]c5ccccc5c4CCN3CN3CCCC/C=C\CC[C@@]45CN(CCCC/C=C\CC[C@@]1(O)[C@H]34)CC[C@@H]25`, the MIC with Bacillus subtilis amounted to 2.8 µg/mL (≈ 4.79 µM); against Micrococcus luteus it was 2.8 µg/mL (≈ 4.79 µM); with Corynebacterium xerosis, 5.7 µg/mL (≈ 9.75 µM).

By MIC is commonly meant the lowest concentration that inhibits growth of the organism. A lower MIC goes with a more susceptible organism. Broadly, the pIC50 is the IC50 on a negative log10 scale, so that one unit is a factor of ten. The IC50 is the concentration that gives 50% inhibition. Low values mean greater potency, high ones weaker potency. In general, pEC50 refers to −log10 of the EC50, conventionally taken in molar units.
